# Data as given in patent publication US20240116985A1, “STAPLED PEPTIDES AND METHODS THEREOF” (priority 2020, published 2024).
# Where two headings read alike, the source gives them in different places.
# Columns and labels:
# Solubility in PBS = format: physicochemical
# Summary of the method: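 Read-out is the HPLC peak area of the supernatant from ultracentrifuged PBS solution, scaled against a 50 μM peptide DMSO injection; value reported as [(PBS area)/(DMSO area)]*50 uM.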
# [1] = molecular target: T1, full-length beta-Catenin (Uniprot ID P35222) (Homo sapiens, UniProt P35222); assay: Fluorescence polarization IC50 (beta-catenin / 5FAM-TCF4 10-53 competition); format: binding; details: read-out: beta-Catenin FP IC50
# T1 construct: 10 nM full-length beta-Catenin (Uniprot ID P35222)
# T1 sequence (P35222 1-781): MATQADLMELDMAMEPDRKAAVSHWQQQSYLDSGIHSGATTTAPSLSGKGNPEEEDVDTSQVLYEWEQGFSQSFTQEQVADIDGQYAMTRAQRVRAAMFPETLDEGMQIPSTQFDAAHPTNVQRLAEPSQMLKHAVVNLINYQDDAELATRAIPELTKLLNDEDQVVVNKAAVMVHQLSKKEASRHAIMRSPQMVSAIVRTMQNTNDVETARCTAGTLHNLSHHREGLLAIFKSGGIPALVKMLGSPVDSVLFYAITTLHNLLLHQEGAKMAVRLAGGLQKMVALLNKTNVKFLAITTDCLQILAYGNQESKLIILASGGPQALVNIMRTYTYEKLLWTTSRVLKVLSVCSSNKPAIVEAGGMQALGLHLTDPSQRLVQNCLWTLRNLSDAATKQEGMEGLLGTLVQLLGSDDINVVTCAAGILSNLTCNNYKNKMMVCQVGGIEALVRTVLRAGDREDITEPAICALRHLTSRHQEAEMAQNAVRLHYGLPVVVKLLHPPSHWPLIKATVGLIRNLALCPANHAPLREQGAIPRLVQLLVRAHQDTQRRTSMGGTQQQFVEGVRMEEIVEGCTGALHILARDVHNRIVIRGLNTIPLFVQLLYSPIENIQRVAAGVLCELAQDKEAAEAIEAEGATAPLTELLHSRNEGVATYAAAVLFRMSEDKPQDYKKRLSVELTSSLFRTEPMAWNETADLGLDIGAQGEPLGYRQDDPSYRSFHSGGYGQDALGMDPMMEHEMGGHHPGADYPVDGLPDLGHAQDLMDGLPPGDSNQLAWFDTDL
# CHI Log D procedure = format: physicochemical; details: pH 7.4, CHI Log D
# [2] = molecular target: T2, beta-catenin/TCF4 engagement (Homo sapiens, UniProt P35222); assay: Nano-BRET target engagement assay (B-cat-Halo & TCF4-Luc in HEK293 cells); format: cell-based
# T2 construct: expressed in transfected cells; host or cells: HEK293
# T2 sequence (P35222 1-781): T1 sequence (P35222 1-781)
# [3] = absolute IC50, read-out: NanoBRET Abs IC50
Solubility (Solubility in PBS; Solubility (uM)),IC50 [1],chromatographic logD (CHI Log D procedure),IC50 ([2]; read-out: NanoBRET Abs IC50),Solubility (Solubility in PBS),IC50 ([2]; read-out: NanoBRET IC50),"IC50 [2, 3]",Structure (SMILES)
40 µM,0.01 µM,1.84,29.8 µM,,,,"CC(=O)N1CCC[C@]12CC=CCCCC1(CCCC=CCCCOC(=O)N3CC[C@@](C(=O)N[C@@H](Cc4ccsc4)C(=O)N[C@@H](Cc4csc5ccccc45)C(=O)N[C@@H](CCC(N)=O)C(=O)N[C@@H](CCCCNC(=O)c4ccc(CN(C)C)cc4)C(N)=O)(C3)NC(=O)[C@H](CC(N)=O)NC(=O)[C@H](Cc3ccccc3)NC(=O)[C@H](C)NC(=O)[C@H](C)NC(=O)[C@H](CC(=O)O)NC(=O)[C@H](CC(=O)O)NC1=O)NC(=O)[C@H](CC(C)(C)C)NC(=O)[C@H](CC(=O)O)NC2=O (stereo partly drawn) [I-910, Ac-PL3-Asp-Npg-B5-Asp-Asp-Ala-Ala-Phe-Asn-PyrS2-3Thi-BztA-Gln-[Me2NCBz]Lys-NH2]"
41 µM,0.028 µM,2.33,15.5 µM,,,,"CC(=O)N1CCC[C@]12CC=CCCCC1(CCCC=CCCCOC(=O)N3CC[C@@](C(=O)N[C@@H](Cc4ccsc4)C(=O)N[C@@H](Cc4csc5ccccc45)C(=O)N[C@@H](CCC(N)=O)C(=O)N[C@@H](CCCCNC(=O)c4ccc5ccccc5c4)C(N)=O)(C3)NC(=O)[C@H](CC(N)=O)NC(=O)[C@H](Cc3ccccc3)NC(=O)[C@H](C)NC(=O)[C@H](C)NC(=O)[C@H](CC(=O)O)NC(=O)[C@H](CC(=O)O)NC1=O)NC(=O)[C@H](CC(C)(C)C)NC(=O)[C@H](CC(=O)O)NC2=O (stereo partly drawn) [I-915, Ac-PL3-Asp-Npg-B5-Asp-Asp-Ala-Ala-Phe-Asn-PyrS2-3Thi-BztA-Gln-[2Napc]Lys-NH2]"
44 µM,0.012 µM,2.15,19.7 µM,,,,"CCCC(=O)NCCCC[C@H](NC(=O)[C@H](CCC(N)=O)NC(=O)[C@H](Cc1csc2ccccc12)NC(=O)[C@H](Cc1ccsc1)NC(=O)[C@]12CCN(C1)C(=O)OCCCC=CCCCC1(CCCC=CC[C@]3(CCCN3C(C)=O)C(=O)N[C@@H](CC(=O)O)C(=O)N[C@@H](CC(C)(C)C)C(=O)N1)C(=O)N[C@@H](CC(=O)O)C(=O)N[C@@H](CC(=O)O)C(=O)N[C@@H](C)C(=O)N[C@@H](C)C(=O)N[C@@H](Cc1ccccc1)C(=O)N[C@@H](CC(N)=O)C(=O)N2)C(N)=O (stereo partly drawn) [I-917, Ac-PL3-Asp-Npg-B5-Asp-Asp-Ala-Ala-Phe-Asn-PyrS2-3Thi-BztA-Gln-[Bua]Lys-NH2]"
15 µM,0.008 µM,1.79,25.1 µM,,18 µM,,"CC(=O)N1CCC[C@]12CC=CCCCC1(CCCC=CCCCOC(=O)N3CC[C@@](C(=O)N[C@@H](Cc4ccsc4)C(=O)N[C@@H](Cc4csc5ccccc45)C(=O)N[C@@H](CCC(N)=O)C(=O)N[C@@H](CCCCN)C(N)=O)(C3)NC(=O)[C@H](CC(N)=O)NC(=O)[C@H](Cc3ccccc3)NC(=O)[C@H](C)NC(=O)[C@H](C)NC(=O)[C@H](CC(=O)O)NC(=O)[C@H](CC(=O)O)NC1=O)NC(=O)[C@H](CC(C)(C)C)NC(=O)[C@H](CC(=O)O)NC2=O (stereo partly drawn) [I-939, Ac-PL3-Asp-Npg-B5-Asp-Asp-Ala-Ala-Phe-Asn-PyrS2-3Thi-BztA-Gln-Lys-NH2]"

# More lines, now with the values behind:
Structure (SMILES),Solubility (Solubility in PBS; Solubility (uM)),IC50 [1],chromatographic logD (CHI Log D procedure),IC50 ([2]; read-out: NanoBRET Abs IC50),Solubility (Solubility in PBS),IC50 ([2]; read-out: NanoBRET IC50),"IC50 [2, 3]"
"COCCOCCOCCOCCOCCOCCC(=O)NCCCC[C@H](NC(=O)[C@H](CCC(N)=O)NC(=O)[C@H](Cc1csc2ccccc12)NC(=O)[C@H](Cc1ccsc1)NC(=O)[C@]12CCN(C1)C(=O)OCCCC=CCCCC1(CCCC=CC[C@]3(CCCN3C(C)=O)C(=O)N[C@@H](CC(=O)O)C(=O)N[C@@H](CC(C)(C)C)C(=O)N1)C(=O)N[C@@H](CC(=O)O)C(=O)N[C@@H](CC(=O)O)C(=O)N[C@@H](C)C(=O)N[C@@H](C)C(=O)N[C@@H](Cc1ccccc1)C(=O)N[C@@H](CC(N)=O)C(=O)N2)C(N)=O (stereo partly drawn) [I-913, Ac-PL3-Asp-Npg-B5-Asp-Asp-Ala-Ala-Phe-Asn-PyrS2-3Thi-BztA-Gln-[mPEG6]Lys-NH2]",49 µM,0.01 µM,1.82,26.4 µM,,,
"CCCCCCCC(=O)NCCCC[C@H](NC(=O)[C@H](CCC(N)=O)NC(=O)[C@H](Cc1csc2ccccc12)NC(=O)[C@H](Cc1ccsc1)NC(=O)[C@]12CCN(C1)C(=O)OCCCC=CCCCC1(CCCC=CC[C@]3(CCCN3C(C)=O)C(=O)N[C@@H](CC(=O)O)C(=O)N[C@@H](CC(C)(C)C)C(=O)N1)C(=O)N[C@@H](CC(=O)O)C(=O)N[C@@H](CC(=O)O)C(=O)N[C@@H](C)C(=O)N[C@@H](C)C(=O)N[C@@H](Cc1ccccc1)C(=O)N[C@@H](CC(N)=O)C(=O)N2)C(N)=O (stereo partly drawn) [I-918, Ac-PL3-Asp-Npg-B5-Asp-Asp-Ala-Ala-Phe-Asn-PyrS2-3Thi-BztA-Gln-[Oct]Lys-NH2]",44 µM,0.033 µM,2.49,11.1 µM,,,
"CC(=O)N1CCC[C@]12CC=CCCCC1(CCCC=CCCCOC(=O)N3CC[C@@](C(=O)N[C@@H](Cc4ccsc4)C(=O)N[C@@H](Cc4csc5ccccc45)C(=O)N[C@@H](CCC(N)=O)C(=O)N[C@@H](CCCCNC(=O)C45CC6CC(CC(C6)C4)C5)C(N)=O)(C3)NC(=O)[C@H](CC(N)=O)NC(=O)[C@H](Cc3ccccc3)NC(=O)[C@H](C)NC(=O)[C@H](C)NC(=O)[C@H](CC(=O)O)NC(=O)[C@H](CC(=O)O)NC1=O)NC(=O)[C@H](CC(C)(C)C)NC(=O)[C@H](CC(=O)O)NC2=O (stereo partly drawn) [I-919, Ac-PL3-Asp-Npg-B5-Asp-Asp-Ala-Ala-Phe-Asn-PyrS2-3Thi-BztA-Gln-[AdamantC]Lys-NH2]",44 µM,0.028 µM,2.55,15.2 µM,,,
"CC(=O)N1CCC[C@]12CC=CCCCC1(CCCC=CCCCOC(=O)N3CC[C@@](C(=O)N[C@@H](Cc4ccsc4)C(=O)N[C@@H](Cc4csc5ccccc45)C(=O)N[C@@H](CCC(N)=O)C(=O)N[C@@H](CCCCNC(=O)C45CC6(C)CC(C)(CC(C)(C6)C4)C5)C(N)=O)(C3)NC(=O)[C@H](CC(N)=O)NC(=O)[C@H](Cc3ccccc3)NC(=O)[C@H](C)NC(=O)[C@H](C)NC(=O)[C@H](CC(=O)O)NC(=O)[C@H](CC(=O)O)NC1=O)NC(=O)[C@H](CC(C)(C)C)NC(=O)[C@H](CC(=O)O)NC2=O (stereo partly drawn) [I-920, Ac-PL3-Asp-Npg-B5-Asp-Asp-Ala-Ala-Phe-Asn-PyrS2-3Thi-BztA-Gln-[Me3AdamantC]Lys-NH2]",,0.117 µM,3.08,17.7 µM,50 µM,,
"CC(=O)N1CCC[C@]12CC=CCCCC1(CCCC=CCCCOC(=O)N3CC[C@@](C(=O)N[C@@H](Cc4ccccc4Cl)C(=O)N[C@@H](Cc4csc5ccccc45)C(=O)N[C@@H](CCC(N)=O)C(N)=O)(C3)NC(=O)[C@H](CC(N)=O)NC(=O)[C@H](Cc3ccccc3)NC(=O)[C@H](C)NC(=O)[C@H](C)NC(=O)[C@H](CN(CC(=O)O)CC(F)(F)F)NC(=O)[C@H](CC(=O)O)NC1=O)NC(=O)[C@H](CC(C)(C)C)NC(=O)[C@H](CC(=O)O)NC2=O (stereo partly drawn) [I-921, Ac-PL3-Asp-Npg-B5-Asp-TfeGA-Ala-Ala-Phe-Asn-PyrS2-2C1F-BztA-Gln-NH2]",24 µM,0.008 µM,2.26,,,4 µM,
"CC(=O)N1CCC[C@]12CC=CCCCC1(CCCC=CCCCOC(=O)N3CC[C@@](C(=O)N[C@@H](Cc4ccccc4Cl)C(=O)N[C@@H](Cc4csc5ccccc45)C(=O)N[C@@H](CO)C(N)=O)(C3)NC(=O)[C@H](Cc3ccccc3)NC(=O)[C@H](Cc3ccccc3)NC(=O)[C@H](C)NC(=O)[C@H](C)NC(=O)[C@H](CN(CC(=O)O)CC(F)(F)F)NC(=O)[C@H](CC(=O)O)NC1=O)NC(=O)[C@H](CC(C)(C)C)NC(=O)[C@H](CC(=O)O)NC2=O (stereo partly drawn) [I-990, Ac-PL3-Asp-Npg-B5-Asp-TfeGA-Ala-Ala-Phe-Phe-PyrS2-2C1F-BztA-Ser-NH2]",,0.041 µM,2.65,,10 µM,,8.8 µM
"CC(=O)N1CCC[C@]12CC=CCCCC1(CCCC=CCCCOC(=O)N3CC[C@@](C(=O)N[C@@H](Cc4ccccc4Cl)C(=O)N[C@@H](Cc4csc5ccccc45)C(=O)N[C@@H](CCC(N)=O)C(N)=O)(C3)NC(=O)[C@H](CC(N)=O)NC(=O)[C@H](Cc3ccccc3)NC(=O)[C@H](CCCCN)NC(=O)[C@H](C)NC(=O)[C@H](CN(CC(=O)O)CC(F)(F)F)NC(=O)[C@H](CC(=O)O)NC1=O)NC(=O)[C@H](CC(C)(C)C)NC(=O)[C@H](CC(=O)O)NC2=O (stereo partly drawn) [I-1006, Ac-PL3-Asp-Npg-B5-Asp-TfeGA-Ala-Lys-Phe-Asn-PyrS2-2C1F-BztA-Gln-NH2]",30 µM,0.005 µM,1.7,,,,> 20 µM
